Source: PMC10510382, “Discovery of a First-in-Class Degrader for the Lipid Kinase PIKfyve” (Journal of Medicinal Chemistry, 2023)

Experiments:
von Hippel–Lindau (VHL) = target: T1, von Hippel–Lindau (VHL) (Homo sapiens, UniProt P40337); assay: VHL-dependent degradation in VCaP cells: blocked by VL285; inactive hydroxy isomer […]dN does not degrade; assay type: cell-based
T1 construct: with PIKfyve

PIKfyve = target: T2, PIKfyve (Homo sapiens, UniProt Q9Y2I7); assay: PROTAC degradation by immunoblot in VCaP cells (DC50), blocked by warhead […] and VL285; TMT proteomics; assay type: cell-based
T2 construct: with VHL
T2 sequence (Q9Y2I7 2-2098): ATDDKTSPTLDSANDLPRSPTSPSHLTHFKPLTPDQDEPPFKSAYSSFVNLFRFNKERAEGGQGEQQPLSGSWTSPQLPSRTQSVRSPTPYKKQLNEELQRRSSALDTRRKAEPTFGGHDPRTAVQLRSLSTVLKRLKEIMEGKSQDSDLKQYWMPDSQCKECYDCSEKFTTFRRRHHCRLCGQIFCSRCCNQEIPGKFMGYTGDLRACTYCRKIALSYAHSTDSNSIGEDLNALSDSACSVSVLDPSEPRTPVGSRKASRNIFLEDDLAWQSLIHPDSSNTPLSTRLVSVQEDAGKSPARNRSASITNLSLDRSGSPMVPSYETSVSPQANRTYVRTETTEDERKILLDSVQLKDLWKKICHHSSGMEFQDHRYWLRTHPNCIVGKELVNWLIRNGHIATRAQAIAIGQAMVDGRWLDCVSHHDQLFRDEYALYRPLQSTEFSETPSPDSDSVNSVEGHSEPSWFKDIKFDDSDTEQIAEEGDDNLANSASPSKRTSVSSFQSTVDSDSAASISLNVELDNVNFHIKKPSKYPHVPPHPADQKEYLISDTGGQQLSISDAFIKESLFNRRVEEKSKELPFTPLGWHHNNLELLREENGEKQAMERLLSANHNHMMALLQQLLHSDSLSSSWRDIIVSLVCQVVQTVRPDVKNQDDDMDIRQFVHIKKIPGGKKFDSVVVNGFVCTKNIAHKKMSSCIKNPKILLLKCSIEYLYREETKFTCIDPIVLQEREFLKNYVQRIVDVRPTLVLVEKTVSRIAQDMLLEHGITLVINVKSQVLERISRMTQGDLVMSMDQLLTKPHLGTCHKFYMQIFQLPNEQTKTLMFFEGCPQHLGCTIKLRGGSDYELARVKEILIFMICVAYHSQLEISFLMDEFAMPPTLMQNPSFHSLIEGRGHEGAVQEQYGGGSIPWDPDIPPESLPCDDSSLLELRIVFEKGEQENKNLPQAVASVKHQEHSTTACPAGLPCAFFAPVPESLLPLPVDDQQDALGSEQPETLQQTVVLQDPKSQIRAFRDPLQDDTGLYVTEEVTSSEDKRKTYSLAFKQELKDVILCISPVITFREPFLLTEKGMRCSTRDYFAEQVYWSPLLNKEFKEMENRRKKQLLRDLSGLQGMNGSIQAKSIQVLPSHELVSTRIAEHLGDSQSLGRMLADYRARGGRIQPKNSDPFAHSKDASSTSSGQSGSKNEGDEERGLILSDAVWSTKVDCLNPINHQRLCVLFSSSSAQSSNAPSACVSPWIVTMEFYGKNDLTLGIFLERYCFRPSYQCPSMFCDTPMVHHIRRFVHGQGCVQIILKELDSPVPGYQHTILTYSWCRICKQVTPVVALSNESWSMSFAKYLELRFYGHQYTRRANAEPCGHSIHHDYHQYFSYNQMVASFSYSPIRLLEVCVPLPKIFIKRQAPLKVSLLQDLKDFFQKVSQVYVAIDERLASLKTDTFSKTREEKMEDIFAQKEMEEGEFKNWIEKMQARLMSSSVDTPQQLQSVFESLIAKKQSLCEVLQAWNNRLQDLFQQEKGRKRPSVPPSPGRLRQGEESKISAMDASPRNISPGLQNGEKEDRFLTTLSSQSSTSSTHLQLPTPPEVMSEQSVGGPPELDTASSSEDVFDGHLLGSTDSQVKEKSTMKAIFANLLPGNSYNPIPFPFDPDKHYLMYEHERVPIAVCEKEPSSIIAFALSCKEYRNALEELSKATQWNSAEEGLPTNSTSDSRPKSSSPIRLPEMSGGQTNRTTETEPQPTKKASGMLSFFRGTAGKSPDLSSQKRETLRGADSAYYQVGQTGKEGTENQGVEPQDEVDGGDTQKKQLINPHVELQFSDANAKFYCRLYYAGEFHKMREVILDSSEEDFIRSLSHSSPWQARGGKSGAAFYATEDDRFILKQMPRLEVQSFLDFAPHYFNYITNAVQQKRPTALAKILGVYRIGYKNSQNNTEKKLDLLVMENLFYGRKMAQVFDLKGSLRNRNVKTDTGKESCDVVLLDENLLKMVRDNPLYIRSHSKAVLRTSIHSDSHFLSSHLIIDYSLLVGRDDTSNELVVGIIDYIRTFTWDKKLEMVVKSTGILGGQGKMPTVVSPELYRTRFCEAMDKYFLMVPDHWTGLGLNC

T1 sequence (P40337 whole entry): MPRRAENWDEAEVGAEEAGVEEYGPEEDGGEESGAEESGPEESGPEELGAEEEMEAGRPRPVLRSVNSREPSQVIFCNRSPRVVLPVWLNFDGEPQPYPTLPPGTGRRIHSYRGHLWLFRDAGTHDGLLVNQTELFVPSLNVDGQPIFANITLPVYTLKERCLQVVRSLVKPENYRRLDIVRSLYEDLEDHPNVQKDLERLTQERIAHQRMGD
T1 sequence (Q9Y2I7 2-2098 partner): as the sequence (Q9Y2I7 2-2098) above

DC50 (PIKfyve): 1.48 nM
SMILES: Cc1cccc(/C=N/Nc2cc(N3CCOCC3)nc(OCCc3ccc(NC(=O)CCCCC(=O)N[C@H](C(=O)N4C[C@H](O)C[C@H]4C(=O)NCc4ccc(-c5scnc5C)cc4)C(C)(C)C)cc3)n2)c1 [12d, N^1-((S)-1-((2S,4R)-4-Hydroxy-2-((4-(4-methylthiazol-5-yl)benzyl)carbamoyl)pyrrolidin-1-yl)-3,3-dimethyl-1-oxobutan-2-yl)-N^6-(4-(2-((4-(2-((E)-3-methylbenzylidene)hydrazineyl)-6-morpholinopyrimidin-2-yl)oxy)ethyl)phenyl)adipamide]
VHL-dependent degradation in VCaP cells: blocked by VL285; inactive hydroxy isom (von Hippel–Lindau (VHL)): PIK5-12d induced PIKfyve degradation in a VHL- and proteasome-dependent manner
